Data taken from patent publication US10821142B2, “Cancer treatment and diagnosis” (priority 2015, dated 2020).

Assays:
type I IFN production = experiment: IFNB induction (qPCR) in normal and colon cancer cells treated with AOM or DMH; assay type: cell-based, human; details: 15 mM for 20 hours
Description: FIG. 22. Normal and colon cancer cells were treated with AOM or DMH at 15 mM for 20 hours. IFNB induction was analyzed by qPCR. STING, IRF3 and NF-kB translocation was examined: +, translocation; −, no translocation.
The question arises as to why the STING-signaling pathway may be inhibited in colon adenocarcinoma. Recently, it was shown that STING-deficient cells and mice are sensitive to AOM-induced DNA damage. In this situation, the STING pathway may play a role in the DNA-damage response pathway, to induce the production of cytokines which facilitate tissue repair or damaged cell removal (Chatzinikolaou et al., 2014; Kidane et al., 2014; Lord and Ashworth, 2012). As such, innate immune induction of CA cells in response to DNA damaging agents was examined. […] Thus, the inhibition of the STING pathway may enable DNA damaged cells, harboring mutations, to escape part of the DNA damage response and the immune surveillance machinery to progress into a tumorigenic state.

IRF3/NF-κB translocation = experiment: Immunofluorescence of IRF3/NF-κB translocation in FHC treated with DMH/AOM; assay type: cell-based, human; details: 3 mM for 48 hours
Description: FIGS. 8A-8C show fluorescence microscopy analysis (related to FIG. 1) of DAPI staining in WT and SKO MEFs treated with 3 mM of AOM of 3 mM of DMH (FIG. 8A) and anti-dsDNA staining and the ration of cytoplasm to nucleus (FIG. 8B) in Human normal colon epithelial cells (FHC) treated with 3 mM of AOM or 3 mM of DMH for 48 hours. (FIG. 8C) Immunofluorescence microscopy analysis of FHC treated with AOM and DMH sane as FIG. 8A for 48 hours using p65 or IRF3 antibody. Images shown at original magnification, 160×.
To start determining the mechanisms underlining the cause of DMH/AOM-induced STING activity, MEF or FHC cells were treated with these drugs and observed by two different approaches, DAPI staining and immunofluorescence (IF) using anti-dsDNA antibody, the leakage of DNA into the cytosol (FIGS. 8A and 8B). Cytosolic DNA activates STING and stimulates STING/TBK1 trafficking via autophagy to endosomal regions harboring the transcription factors IRF3 and NF-κB, which triggers cytokine production. […]
Cells were cultured and treated in their appropriate media on Lab-Tek II chamber slides. […] Immunostaining was performed with rabbit-anti-STING polyclonal followed by fluorescence conjugated secondary antibodies (FITC-goat-anti-rabbit) (Invitrogen). […]

[1] = tested on: STING-dependent genes in murine embryonic fibroblasts; experiment: Gene array and qPCR of WT and SKO MEFs treated with AOM or DMH; assay type: cell-based, mouse; details: WT and SKO MEFs; DMH 1 mM for 8 hours
Description: FIGS. 1A-1E show activation of STING-dependent genes by azoxymethane (AOM) (FIG. 1A) Gene array analysis of Wild type (WT) and STING deficient (SKO) mouse embryonic fibroblasts (MEFs) treated with AOM at 0.14 mM for 8 hours (Left) and 1,2-dimethylhydrazine (DMH) at 1 mM for 8 hours (Right). Highest variable genes are shown. Rows represent individual genes; columns represent individual samples. Grayscale indicates transcript levels below, equal to, or above the mean. Scale represents the intensity of gene expression (log 2 scale ranges between −2.4 and 2.4). (FIG. 1B) qPCR analysis of Cxcl10 and Ifit3 in MEFs treated with AOM and DMH same as FIG. 1A. (FIG. 1C) qPCR analysis of Cxcl10 in Human epithelial cell (FHC) treated with AOM and DMH at 1 mM for 24 hours. (FIG. 1D) FHC cells were transfected with STING or control siRNA for 72 hours followed by AOM and DMH treatment same as FIG. 1C, and were then subjected to Cxcl0 mRNA expression (Left). STING expression level after siRNA treatment was determined by qPCR (Right). […] (FIG. 1E) STING Immunohistochemistry staining of the colon tissue from WT and SKO mice (Left) and Human. All images were shown at original magnification, 200×.
Towards these objectives, the AOM/DSS model, as described above, was utilized and analyzed the effects of AOM and precursor DMH upon STING signaling. Principally, wild type (WT) or STING-deficient (SKO) murine embryonic fibroblasts (MEF) were treated in vitro with DMH or metabolite AOM for 8 hours and microarray analysis performed to analyze the consequences to gene expression. […] The observed STING-dependent gene expression was confirmed following RT-PCR analysis of select mRNA such as Cxcl10 and IFIT3 (FIG. 1B). […] Thus, the DNA damaging agent DMH/AOM can invoke STING-dependent signaling.
Total RNA was isolated from cells or tissues with RNeasy Mini kit (74104, Qiagen, Valencia, Calif.). RNA quality was analyzed by Bionalyzer RNA 6000 Nano (Agilent Technologies, Santa Clara Calif.). […]

## CNNC [DMH, 1,2-dimethylhydrazine]
Type I IFN production; CA cells with defective STING activated IRF3 or NF-kB activity
  production of type I IFN: unable to generate type I IFN
Type I IFN production; normal colon epithelial (CCD841) and LS123
  production of type I IFN: able to induce the production of type I IFN
IRF3/NF-κB translocation
  translocation of IRF3/NF-κB: could instigate the translocation of IRF3/NF-κB
[1]
  STING-dependent gene expression: A similar effect was observed
